Laboratory results as given in patent publication US20240295545A1, “GLIOMA THERAPY” (Imperial College Innovations Limited, priority 2021, published 2024).
“Also recorded” adds a separate entry of the source.

Experiments:
GBM1 cells = experiment: Glioma suppression assay (SRB proliferation); format: cell-based, human; conditions: in vitro; FIG. 4D
Experimental: • 1. Without removing the cell culture medium, gently add 50% cold TCA to each well (the final concentration of TCA should be 10%), and incubate the plates at 4° C. for 1 h. For 150 μL medium volume in each well, add 30 μL of 50% TCA. • 2. Wash the plates 4 times with slow-running tap water. Then allow the plates to air-dry at RT. After fixing and drying, the plates can be stored indefinitely at RT. • 3. Add 0.4% SRB solution to each well (e.g. 80 μL/well). Leave at room temperature for 1 h (no shaking) and then quickly rinse the plates 4 times with 1% acetic acid to remove unbound dye. Then allow the plates to dry at RT. Stained and dried plates can be stored indefinitely at RT. • 4. Add 10 mM Tris base solution to each well (e.g. 80 μL/well) and shake the plate for 5 min to solubilize the protein-bound dye. Alternatively, if a shaker is not available, SRB can be solubilized after 30 min in 10 mM Tris base solution. • 5. Measure the OD at […] in a microplate reader. The suboptimal wavelengths should be 490-530 nm.
1000 Grade IV cells (cell line 1 in FIG. 2) were plated in cell culture medium (10% FBS in DMEM) per each well in 96-well plates. On day 1, the cells were treated with 10 μM of the indicated drugs and incubated at 37° C. for 5 days. SRB assay was performed prior to addition of the drugs and after 5 days. The values were normalized against those of the control (untreated cultures). […]

Grade IV (GBM) cells = experiment: Proliferation of primary tumour cells incubated with mitochondrial toxins, GBM; format: cell-based, human; conditions: rotenone 100 nM, oligomycin 50 nM, UK5099 10 μM; hypoxia and normoxia; FIG. 1B
Source text: (§1) The cell lines employed were low-passage lines, derived from tumour tissue. The cells were obtained from tumour tissue of a highly proliferative glioma (which was a grade IV/glioblastoma multiforme glioma). For comparison, cells were also obtained from a tumour tissue of a comparatively slow-growing glioma (which was a grade III glioma).
(§2) The inventors compared the metabolic and mitochondrial energetic profile of slow-growing glioma/astrocytoma cells (chosen in particular due to their relatively slow growth rate) to that in cells of a highly proliferative glioma primary tumour cells by performing ‘hypoxia’ experiments with primary tumour cells, in which primary tumour cells were deprived of adequate oxygen supply and compared with control cells not so deprived (‘normoxia’). […] The slow growing cells were selected from a grade III glioma, and the highly proliferative cells were chosen from a grade IV glioma i.e. glioblastoma multiforme cells.
(§3) To further investigate this, primary tumour cells were incubated (both under hypoxia and normoxia) with the toxins rotenone (100 nM), oligomycin (50 nM), a combination of rotenone and oligomycin (100 nM and 50 nM, respectively) or UK5099 (10 μM).

[1] = tested on: grade III astrocytoma cells; experiment: Proliferation of primary tumour cells incubated with mitochondrial toxins, grade III; format: cell-based, human; conditions: rotenone 100 nM, oligomycin 50 nM, UK5099 10 μM; hypoxia and normoxia; FIG. 1B
Source text: as §1, §2, §3

[2] = molecular target: T1, mitochondrial F1Fo ATP Synthase c-subunit leak channel (Sus scrofa, UniProt A1XQS5); experiment: ACMA assay (H+ leak in submitochondrial vesicles); format: biochemical, pig; conditions: negative control; swine brain SMVs
T1 construct: isolated swine brain submitochondrial vesicles (SMVs), which are enriched for the F1Fo ATP synthase; from tissue; host or cells: pig (swine) brain, submitochondrial vesicles
T1 sequence (A1XQS5 62-136): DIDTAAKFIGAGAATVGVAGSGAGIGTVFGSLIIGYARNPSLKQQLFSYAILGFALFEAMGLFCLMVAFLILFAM
Experimental: ACMA assay buffer (concentrations used throughout the assay):
ACMA solution: • Stock solution of 1 mg/ml (3.87 mM) ACMA in 100% ethanol • Diluted to working solution (3 μM) in assay buffer • Aliquots of 10 μL to be added to wells
• 1. Sub-mitochondrial vesicles (SMVs) isolated from pig brains were thawed and prepared to 0.17 μg/μL in ACMA assay buffer. • 2. Drug solutions were added to 386-well plates at a final concentration of 10 μM. • 3. Sub-mitochondrial vesicles (SMVs), isolated from pig brains, were thawed and prepared to 0.17 μg/μL in ACMA assay buffer. 30 μL of this solution (containing 5 μg of polypeptide, as measured via the QuickStart Bradford Protein Assay (Bio-Rad, UK)) was added to each well. • 4. Stock solution of 1 mg/ml (3.87 mM) ACMA (9-amino-6-chloro-2-methoxyacridine) were diluted to working solution 3 μM in assay buffer. Aliquots of 10 μL were added to each well (final concentration of 0.75 μM). • 5. The samples were mixed and incubated at room temperature for 20 mins. • 6. The ACMA fluorescence was measured at 1 min intervals using a Tecan Infinite M200 plate reader—excitation 412 nm, emission 480 nm. • 7. […] Fluorescence was measured quickly after addition of ATP for another 7 mins (1 min intervals). […]

Structure (SMILES)	effect on proliferation of GBM1 cell line (highest rate of proliferation) (GBM1 cells)	effect on proliferation of GBM cells (Grade IV (GBM) cells)	effect on proliferation of grade III astrocytoma cells [1]	ATP response in ACMA assay [2]
Cn1nnc2c(C(N)=O)ncn2c1=O [TMZ, temozolomide]	no effect			
C=C(C)[C@H]1Cc2c(ccc3c2O[C@@H]2COc4cc(OC)c(OC)cc4[C@@H]2C3=O)O1 [rotenone]		decreases the proliferation; also recorded: impeded the proliferation	without a significant effect	
N#C/C(=C\c1cn(-c2ccccc2)c2ccccc12)C(=O)O [UK5099]		decreases the proliferation; also recorded: impeded the proliferation	without a significant effect	
CC[C@H]1/C=C/C=C/C[C@@H](C)[C@H](O)[C@@](C)(O)C(=O)[C@@H](C)[C@H](O)[C@@H](C)C(=O)[C@@H](C)[C@H](O)[C@@H](C)/C=C/C(=O)O[C@@H]2[C@H](C)[C@H](CC1)O[C@]1(CC[C@H](C)[C@H](C[C@@H](C)O)O1)[C@H]2C [oligomycin]		decreases the proliferation; also recorded: impeded the proliferation	without a significant effect	attenuated
N#CC(C#N)=NNc1ccc(OC(F)(F)F)cc1 [FCCP, carbonylcyanide p-trifluoromethoxyphenylhydrazone]				attenuated
